The record followed here is the SangsterLogP compilation.

Each structure is given as a SMILES string.

The compound `CCC(=O)C(CCN(C)C)(c1ccccc1)c1ccccc1` displayed a log partition coefficient (logP) of 4.15.
On to `CCC(=O)C(CCN(C)C)(c1ccccc1)c1ccc(O)cc1` (stereo not drawn), for which the logP came to 3.45.
Under `CCC(=O)C(CCN(C)C)(c1ccccc1)c1ccc(C)cc1` (stereo not drawn) stands 4.93.
On to `CCC(=O)C(CCN(C)C)(c1ccccc1)c1ccc(OC)cc1` (stereo not drawn), for which the log partition coefficient (logP) was 4.28.
The value for `CCC(=O)C(CCN(C)C)(c1ccccc1)c1ccc(SC)cc1` (stereo not drawn) was 4.96; that for `CCC(=O)C(CCN(C)C)(c1ccccc1)c1cccc(F)c1` (stereo not drawn) was 4.17.
The value for `CCC(=O)C(CCN(C)C)(c1ccccc1)c1ccc(Br)cc1` (stereo not drawn) was 5.23.
The value for `CCC(=O)C(CCN(C)C)(c1ccccc1)C1CCCCCC1` (stereo not drawn) was 5.91; that for `CCC(=O)C(CCN(C)C)(c1ccccc1)c1ccc(Cl)cc1` (stereo not drawn) was 4.9.
On to `CCC(=O)C(CCN(C)C)(c1ccccc1)C1CCCC1` (stereo not drawn), for which the logP is 4.53.
Under `CCC(=O)C(CCN(C)C)(c1ccccc1)C1CCCCC1` (stereo not drawn) stands 5.13; under `CCC(=O)C(CCN(C)C)(c1ccc(F)cc1)c1ccc(F)cc1`, 4.84.
Under `CCC(=O)C(CCN(C)C)(c1ccccc1)c1ccc(F)cc1` (stereo not drawn) stands 4.19.

What is called logP is the decadic logarithm of the partition coefficient of the neutral form, usually between octanol and water.
